Laboratory results reported in the NIST ThermoML archive (doi:10.1016/j.jct.2006.07.004).

Assay: xn = mol fraction of the nth substance listed
Conditions: 101 kPa, Liquid; for viscosity: Capillary tube (Ostwald / Ubbelohde) method; for mass density: Vibrating tube method

ClC(Cl)Cl [trichloromethane] + CC(=O)CC(C)C
Conditions | mass density, 283.15 K [kg/m3] | mass density, 293.15 K [kg/m3] | mass density, 303.15 K [kg/m3] | mass density, 313.15 K [kg/m3] | viscosity, 283.15 K [mPa·s] | viscosity, 293.15 K [mPa·s] | viscosity, 303.15 K [mPa·s] | viscosity, 313.15 K [mPa·s]
x1 = 0.0847 | 849 | 839.4 | 829.9 | 820 | 0.685 | 0.598 | 0.531 | 0.472
x1 = 0.1841 | 898.2 | 888.1 | 878 | 867.5 | 0.719 | 0.63 | 0.558 | 0.493
x1 = 0.276 | 947.2 | 936.6 | 925.8 | 914.9 | 0.755 | 0.659 | 0.577 | 0.513
x1 = 0.3529 | 991.1 | 980.1 | 968.7 | 957.1 | 0.78 | 0.678 | 0.596 | 0.526
x1 = 0.4467 | 1048.8 | 1037 | 1025 | 1012.6 | 0.808 | 0.696 | 0.616 | 0.542
x1 = 0.506 | 1087.7 | 1075.3 | 1062.8 | 1050 | 0.812 | 0.703 | 0.62 | 0.551
x1 = 0.6079 | 1159.3 | 1146 | 1132.5 | 1118.7 | 0.814 | 0.704 | 0.623 | 0.557
x1 = 0.6959 | 1226.7 | 1212.4 | 1197.9 | 1183.2 | 0.798 | 0.696 | 0.619 | 0.554
x1 = 0.8213 | 1332.6 | 1316.7 | 1300.6 | 1284.1 | 0.746 | 0.664 | 0.592 | 0.533
x1 = 0.9067 | 1412.3 | 1395 | 1377.7 | 1359.8 | 0.689 | 0.629 | 0.56 | 0.503
x1 = 1 | 1507.3 | 1488.4 | 1469.4 | 1450 | 0.629 | 0.573 | 0.516 | 0.468
